# Values quoted from earlier work in patent US20240156891A1, “EXTRACTS OF SALVIA MILTIORRHIZA AND/OR PONCIRUS TRIFOLIATA FOR INHIBITING BODY WEIGHT GAIN” (Taipei Medical University, priority 2022, published 2024).
# Details: typical values of solvents
row,Structure (SMILES),log Kow
1,CC(C)=O [acetone],−0.24
2,CCOC(C)=O [ethyl acetate],0.66~0.73
3,CO [methanol],−0.82~−0.66
4,CCCCCC [n-hexane],3.17~3.94
